# Results from article PMC3351436, “Direct and Allosteric Inhibition of the FGF2/HSPGs/FGFR1 Ternary Complex Formation by an Antiangiogenic, Thrombospondin-1-Mimic Small Molecule” (PLoS ONE, 2012).
# How the values were obtained:
# endothelial cells [1] = tested on: endothelial cells; design: method as in PMID 20056600; details: cited from earlier work
# FGF2/FGFR1 interaction = target: T1, FGF2/FGFR1 interaction (Homo sapiens, UniProt P09038); assay: SPR competition: FGF2 binding to substrate-immobilized FGFR1; details: FGF2 150 nM injected over immobilized FGFR1, read-out: ID50, prevention of FGF2/FGFR1 interaction
# T1 construct: purchased ReliaTech
# T1 sequence (P09038 134-288): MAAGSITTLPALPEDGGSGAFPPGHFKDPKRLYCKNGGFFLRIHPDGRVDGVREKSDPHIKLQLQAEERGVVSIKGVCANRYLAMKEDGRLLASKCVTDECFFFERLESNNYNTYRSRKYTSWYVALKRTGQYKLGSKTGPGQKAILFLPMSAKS
# Method: (§1) Each point is the mean ± SEM of 3 separate experiments. […] C) Binding of Eu-FGF2 to endothelial cells (BAEC). […] After 2 h of incubation at 298K, the cells bound to the monolayer were counted under an inverted microscope. Each point is the mean ± SEM of 3 separate experiments performed in triplicate. In B and C, black and white arrows indicate the inhibitions obtained with heparin (0.1 µg/ml) and unlabeled FGF2 (1.5 µg/ml) used as reference competitor of HSPGs and FGFR1 binding, respectively
# SPR measurements were performed on a BIAcore X instrument (GE-Healthcare, WI). Heparin was immobilized onto the SPR chip as described, allowing the immobilization of 80 resonance units (RU) (6.0 fmol/mm^2). Immobilization of FGFR (13,800 RU, 42.0 fmol/mm^2), is described in the Supporting Information S1. Sensorchips coated with streptavidin or FGF-unrelated noggin protein were used for blank subtraction (respectively for heparin and FGFR-1).
# Surface plasmon resonance (SPR) analysis. SPR measurements were performed on a BIAcore X instrument (GE-Healthcare, WI). Heparin was immobilized onto the SPR chip as already described. Briefly, a CMD50L sensorchip (Xantec Bioanalytics, Dusseldorf, Germany) activated with 50 µl of a mixture containing 0.2 M EDC and 0.5 M NHS was coated with streptavidin. […]
# HSPGs on CHO-K1 cells = target: T2, HSPGs on CHO-K1 cells (Homo sapiens, UniProt P09038); assay: Binding of Eu-FGF2 to wild-type CHO-K1 cells (expressing HSPGs but not FGFR1); assay type: cell-based
# T2 construct: endogenous in cells; host or cells: CHO-K1
# T2 sequence (P09038 134-288): as above
# Method: (§2) It was possible to discriminate between FGF2 bound to HSPGs low affinity receptors and FGF2 bound to the high affinity FGFR1, following a previously reported procedure.
# (§3) Binding to low and high affinity receptors was analyzed according to [31].
# (§4) Binding of FGF2 to cells. Europium-labeled FGF2 (Eu-FGF2) was prepared as previously described. Endothelial cells (BAEC), naturally expressing both HSPGs and FGFR1, CHO-K1 and FGFR1-expressing A745 CHO cells were used. Subconfluent cell cultures in 96-well plates were washed and incubated for 30 min at 277K in serum-free DMEM with 0.15% gelatin and 25mM HEPES (DMEM-gelatin). […] The plate was incubated for 2 h at 277K. Wells were washed with cold DMEM-gelatin to remove unbound FGF2, and the amount of total bound FGF2 was detected by adding DELFIA^? Enhancement Solution (100 µl, PerkinElmer), and measuring time resolved fluorescence using a Victor^3 multilabel plate reader (PerkinElmer), as described.
# [2] = target: T3, HSPGs low affinity receptors on BAEC (Homo sapiens, UniProt P09038); assay: Binding of Eu-FGF2 to endothelial cells (BAEC), low affinity receptors; assay type: cell-based, bovine; details: Eu-FGF2 10 ng/ml
# T3 construct: endogenous in cells; host or cells: BAEC
# T3 sequence (P09038 134-288): as above
# Method: as §2, §3, §4
# [3] = target: T4, FGFR1 on A745 CHO flg-1A cells (Homo sapiens, UniProt P09038); assay: Binding of Eu-FGF2 to FGFR1-transfected A745 CHO flg-1A cells (HSPG-deficient); assay type: cell-based, murine
# T4 construct: expressed in transfected cells; host or cells: A745 CHO (HSPG-deficient), clone flg-1A
# T4 sequence (P09038 134-288): as above
# Method: as §2, §3
# Cell cultures. Wild-type CHO-K1 cells and the derived HSPG-deficient A745 CHO cell mutants, kindly provided by J. D. Esko (La Jolla, CA), were grown in Ham's F-12 medium supplemented with 10% fetal calf serum (FCS). […] Bovine aortic endothelial cells (BAEC) [30]were cultured in DMEM supplemented with 10% FCS.
# as §4
# [4] = tested on: chicken chorioallantoic membrane; design: method as in PMID 20056600; details: chicken chorioallantoic membrane assay; cited from earlier work
# FGF2/heparin interaction = target: T5, FGF2/heparin interaction (Homo sapiens, UniProt P09038); assay: SPR competition: FGF2 binding to surface-immobilized heparin; details: FGF2 150 nM injected over immobilized heparin, read-out: IC50, prevention of FGF2/heparin interaction
# T5 construct: made in house
# T5 sequence (P09038 134-288): as above
# Method: SPR measurements were performed on a BIAcore X instrument (GE-Healthcare, WI). Heparin was immobilized onto the SPR chip as described [30], allowing the immobilization of 80 resonance units (RU) (6.0 fmol/mm^2).
# Surface plasmon resonance (SPR) analysis. SPR measurements were performed on a BIAcore X instrument (GE-Healthcare, WI). Heparin was immobilized onto the SPR chip as already described [27]. Briefly, a CMD50L sensorchip (Xantec Bioanalytics, Dusseldorf, Germany) activated with 50 µl of a mixture containing 0.2 M EDC and 0.5 M NHS was coated with streptavidin. Heparin was biotinylated at its reducing end and immobilized onto the streptavidin-coated sensorchip, allowing the immobilization of 80 resonance units (RU) (6.0 fmol/mm^2 of heparin). A streptavidin-coated sensorchip was used as reference and for blank subtraction. […] After every run, the sensorchip was regenerated by injection of HBS containing 2.0 M NaCl.
# FGF2/FGFR1/HSPGs complex = target: T6, FGF2/FGFR1/HSPGs complex (Homo sapiens, UniProt P09038); assay: FGF2-mediated cell-cell adhesion assay (A745 CHO flg-1A cells on CHO-K1 monolayer); assay type: cell-based; details: FGF2 1.66 nM, 2 h incubation, serum-free medium; read-out: ID50, inhibition of FGF2-mediated cell-cell adhesion
# T6 construct: expressed in transfected cells; host or cells: A745 CHO flg-1A cells on fixed CHO-K1 monolayer
# T6 sequence (P09038 134-288, one chain of several): as the sequence (P09038 134-288) above
# Method: as §1
# To exert its pro-angiogenic activity, FGF2 needs to set up a productive, ternary complex with HSPGs and FGFR1 [32].
# Data are mean bound cells in three random microscopic fields.
# FGF2-mediated cell-cell adhesion assay: This assay was performed as described previously, with minor modifications. Briefly, monolayers of wild-type CHO-K1 cells were washed with PBS and fixed with 3% glutaraldehyde in PBS for 2 h at 277K followed by washing with 0.1 M glycine, and PBS. […] After 2 h of incubation at 310K, unattached cells were removed by PBS washing and A745 CHO flg-1A cells bound to the CHO-K1 monolayer were counted under an inverted microscope at ×125 magnification. Data are expressed as the mean of the cell counts of three microscopic fields chosen at random. All experiments were performed in triplicate and repeated twice.
# [5] = target: T7, high affinity FGFR1 on BAEC (Homo sapiens, UniProt P09038); assay: Binding of Eu-FGF2 to endothelial cells (BAEC), high affinity receptors; assay type: cell-based, bovine; details: Eu-FGF2 10 ng/ml, after 2 M NaCl wash
# T7 construct: endogenous in cells; host or cells: BAEC
# T7 sequence (P09038 134-288): as above
# Method: as §2, §3, §4
# FGF2 = target: T8, FGF2 (Homo sapiens, UniProt P09038, A136E/C211S/C229S/S138E); assay: NMR 15N-1H HSQC titration of sm27 into FGF2; assay type: binding; details: 0:1 to 4:1 sm27:FGF2, pH 5.5, 298 K
# T8 construct: purchased ASLA (Riga, Latvia)
# T8 sequence (P09038 134-288 A136E/S138E/C211S/C229S): as the sequence (P09038 134-288) above, with A3E, S5E, C78S, C96S counted along it
# Method: All NMR data were collected on a Bruker DMX 500 MHz spectrometer at 298 K.
# NMR samples contained 0.57 mM ^15N-labeled FGF2, dissolved in a buffer containing 50 mM potassium phosphate, 2 mM NaN3, and 10 mM deuterated DTT in 90% H2O/10% D2O, pH 5.5. […] At molar ratios higher than 1:1, partial sample precipitation was observed, till full sample precipitation at nominal 4:1 ratio. […] Due to the precipitation it was not possible to reach the plateau of the titration and to estimate the real stoichiometric ratio at each step.
# endothelial cells [6] = tested on: endothelial cells; design: method as in PMID 20056600; details: cited from earlier work; remark: listed apart in the source
compound,measurement,setting,value
"O=C(Nc1ccc2cc(S(=O)(=O)O)cc(O)c2c1)Nc1ccc2cc(S(=O)(=O)O)cc(O)c2c1 [sm27, 4-hydroxy-6-((((8-hydroxy-6-sulfo-2-naphthyl)amino)carbonyl)amino)-2-naphthalenesulfonic acid]",Effect on binding of FGF2 to endothelial cells,endothelial cells [1],prevented
same,IC50,FGF2/FGFR1 interaction,4 µM
same,Effect on Eu-FGF2 binding to HSPGs,HSPGs on CHO-K1 cells; Eu-FGF2 10 ng/ml,inhibited
same,Effect on FGF2 binding to HSPGs low affinity receptors,[2],inhibited
same,Effect on Eu-FGF2 binding to FGFR1,"[3]; A745 CHO flg-1A cells, Eu-FGF2 10 ng/ml",inhibited
same,Effect on FGF2-induced angiogenesis,[4],inhibited
same,IC50,FGF2/heparin interaction,3.5 µM
same,IC50,FGF2/FGFR1/HSPGs complex,1 µM
same,Effect on FGF2 binding to high affinity FGFR1,[5],inhibited
same,Binding to FGF2 judged from the NMR titration (exchange regime),FGF2,weak binding
same,Effect on FGF2-induced endothelial cell proliferation,endothelial cells [6],inhibited
heparin [reference compound],Effect of reference competitor on Eu-FGF2 binding to HSPGs,HSPGs on CHO-K1 cells; heparin 0.1 µg/ml,inhibitory activity
"unlabelled FGF2: Human recombinant FGF2, unlabeled, reference competitor of FGFR1 binding [reference compound]",Effect of reference competitor on Eu-FGF2 binding to FGFR1,"[3]; FGFR1-CHO cells, unlabeled FGF2 1.5 µg/ml",inhibitory activity
